The source made the active and inactive calls. The rule behind the calls is not given here.
How the values were obtained:
MOLT-3 = assay: In vitro inhibitory activity against the growth of F-Molt-3 tumor cells at a concentration of 15.0 ug/mL; Inactive; type: functional, cell-based; settings: Homo sapiens
HL-60 = assay: In vitro inhibitory activity against the growth of HL-60 tumor cells at a concentration of 24.0 ug/mL; Inactive; type: functional, cell-based; settings: Homo sapiens
CCRF-CEM = assay: In vitro inhibitory activity against the growth of CCRF-CEM tumor cells at a concentration of 13.0 ug/mL; Inactive; type: functional, cell-based; settings: Homo sapiens
P815 = assay: In vitro inhibitory activity against the growth of P-815 tumor cells at a concentration of 16.0 ug/mL; Inactive; type: functional, cell-based; settings: Mus musculus
[1] = Compound tested for the inhibition of IMP-dehydrogenase causing a profound depletion of GMP anf accumulation of IMP; Active; type: functional
[2] = Compound tested for the inhibition of ADP-ribosylation in protein synthesis; Inactive; type: functional

| Compound | Activity [1] | Activity [2] | further results |
| --- | --- | --- | --- |
| C[n+]1cc(C(N)=O)cc(C2O[C@H](CO)[C@@H](O)[C@H]2O)c1 (single isomer, unassigned) |  |  | inhibition (MOLT-3): inactive; inhibition (HL-60): inactive; inhibition (CCRF-CEM): inactive; inhibition (P815): inactive |
| NC(=O)c1csc([C@H]2O[C@@H](COP(=O)(O)OP(=O)(O)OC[C@H]3O[C@@H](n4cnc5c(N)ncnc54)[C@H](O)[C@@H]3O)[C@H](O)[C@@H]2O)n1 | Active |  |  |
| NC(=O)c1cncc([C@@H]2O[C@H](COP(=O)(O)OP(=O)(O)OC[C@@H]3O[C@H](n4cnc5c(N)ncnc54)[C@@H](O)[C@H]3O)[C@@H](O)[C@H]2O)c1 |  | inactive |  |
| C[n+]1cc(C(N)=O)cc([C@@H]2O[C@H](COP(=O)([O-])OP(=O)(O)OC[C@@H]3O[C@H](n4cnc5c(N)ncnc54)[C@@H](O)[C@H]3O)[C@@H](O)[C@H]2O)c1 |  | inactive |  |
| NC(=O)c1csc([C@@H]2O[C@H](CO)[C@@H](O)[C@H]2O)n1 | Active |  |  |

— ChEMBL document CHEMBL1123746, “Synthesis of 5-beta-D-ribofuranosylnicotinamide and its N-methyl derivative. The isosteric and isoelectronic analogues of nicotinamide nucleoside” (1987)
